Experimental data reported in PubChem BioAssay (NCI).
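These data come from cells grown in 96-well plates and exposed to compound for 48 hours at five concentrations. TGI: total growth inhibition.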

Tests used:
Assay in all cases: DTP human tumour cell line panel, 48 h
[1] = test system: SR leukemia
[2] = test system: KM20L2 colon
[3] = test system: M14 melanoma
[4] = test system: DLD-1 colon
[5] = test system: NCI-H522 lung
[6] = test system: HCT-15 colon
[7] = test system: OVCAR-3 ovarian
[8] = test system: NCI-H23 lung
[9] = test system: ACHN renal
[10] = test system: HL-60(TB) leukemia
[11] = test system: XF 498 CNS
[12] = test system: MOLT-4 leukemia
[13] = test system: TK-10 renal
[14] = test system: M19-MEL melanoma
[15] = test system: CAKI-1 renal
[16] = test system: RPMI-8226 leukemia
[17] = test system: SN12C renal
[18] = test system: 786-0 renal
[19] = test system: UO-31 renal
[20] = test system: OVCAR-4 ovarian
[21] = test system: SNB-78 CNS
[22] = test system: EKVX NSCLC
[23] = test system: LXFL 529 NSCLC
[24] = test system: HT29 colon
[25] = test system: OVCAR-8 ovarian
[26] = test system: SF-539 CNS
[27] = test system: SK-MEL-28 melanoma
[28] = test system: K-562 leukemia
[29] = test system: MALME-3M melanoma
[30] = test system: SK-MEL-5 melanoma
[31] = test system: HOP-62 NSCLC
[32] = test system: SK-MEL-2 melanoma
[33] = test system: A549 NSCLC
[34] = test system: A498 renal
[35] = test system: SF-295 CNS
[36] = test system: HCT-116 colon
[37] = test system: RXF-631 renal
[38] = test system: NCI-H226 lung
[39] = test system: DMS 273 small cell lung
[40] = test system: CCRF-CEM leukemia
[41] = test system: UACC-257 melanoma
[42] = test system: IGROV1 ovarian
[43] = test system: HOP-18 NSCLC
[44] = test system: SNB-75 CNS
[45] = test system: LOX IMVI melanoma
[46] = test system: SNB-19 CNS
[47] = test system: U251 CNS
[48] = test system: OVCAR-5 ovarian
[49] = test system: UACC-62 melanoma
[50] = test system: HOP-92 NSCLC
[51] = test system: SW-620 colon
[52] = test system: NCI-H460 lung
[53] = test system: KM12 colon
[54] = test system: COLO 205 colon
[55] = test system: RXF 393 renal
[56] = test system: SF-268 CNS
[57] = test system: SK-OV-3 ovarian
[58] = test system: HCC-2998 colon

Measured: TGI

O=[N+]([O-])c1ccc(C2N3CCCCC3[C@H]3CCCCN23)cc1 (stereo partly specified)
> 100 µM: [1] | [2] | [3] | [4] | [5] | [6] | [7] | [8] | [9] | [10] | [11] | [12] | [13] | [14] | [15] | [16] | [17] | [18] | [19] | [20] | [21] | [22] | [23] | [24] | [25] | [26] | [27] | [28] | [29] | [30] | [31] | [32] | [33] | [34] | [35] | [36] | [37] | [38] | [39] | [40] | [41] | [42] | [43] | [44] | [45] | [46] | [47] | [48] | [49] | [50] | [51] | [52] | [53] | [54] | [55] | [56] | [57]

Cc1cccc(C(C)(C)C)c1NC(=O)CCl
> 100 µM: [1] | [2] | [3] | [4] | [5] | [7] | [8] | [9] | [10] | [11] | [12] | [13] | [14] | [15] | [17] | [58] | [18] | [19] | [20] | [21] | [22] | [23] | [24] | [25] | [26] | [27] | [28] | [29] | [30] | [31] | [32] | [33] | [34] | [35] | [36] | [37] | [38] | [39] | [40] | [41] | [42] | [43] | [44] | [45] | [46] | [47] | [49] | [51] | [52] | [53] | [54] | [55] | [56] | [57]
